US7700602B2, “Amino-5,5-diphenylimidazolone derivatives for the inhibition of β-secretase” (Wyeth LLC, priority 2004, dated 2010)

How the values were obtained:
human BACE1 = human BACE1 (Homo sapiens, UniProt P56817); test: Fluorescent kinetic assay, inhibition of BACE1 (WABC-6 peptide substrate); assay type: biochemical; conditions: 10 nM enzyme, 25 μM substrate WABC-6, pH 4.5, room temperature; read-out: IC50 (μM) BACE1;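 note: fluorescence monitored at 320 nm excitation and 420 nm emission every 40 s over 30 min, with the substrate cleavage rate taken from the linear slope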
human BACE2 = biological target: T1, human BACE2 (Homo sapiens, UniProt Q9Y5Z0); test: Fluorescent Kinetic Assay for Human Recombinant BACE 2 (selectivity BACE1/BACE2); assay type: biochemical; conditions: selectivity BACE1 over BACE2; 1.5 nM human BACE2, 25 μM substrate, pH 4.5;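 note: cleavage rate from the linear slope of fluorescence (excitation 320 nm, emission 420 nm) recorded every 40 s over 30 min at room temperature, sodium acetate buffer with 0.05% CHAPS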
T1 sequence (Q9Y5Z0 63-518): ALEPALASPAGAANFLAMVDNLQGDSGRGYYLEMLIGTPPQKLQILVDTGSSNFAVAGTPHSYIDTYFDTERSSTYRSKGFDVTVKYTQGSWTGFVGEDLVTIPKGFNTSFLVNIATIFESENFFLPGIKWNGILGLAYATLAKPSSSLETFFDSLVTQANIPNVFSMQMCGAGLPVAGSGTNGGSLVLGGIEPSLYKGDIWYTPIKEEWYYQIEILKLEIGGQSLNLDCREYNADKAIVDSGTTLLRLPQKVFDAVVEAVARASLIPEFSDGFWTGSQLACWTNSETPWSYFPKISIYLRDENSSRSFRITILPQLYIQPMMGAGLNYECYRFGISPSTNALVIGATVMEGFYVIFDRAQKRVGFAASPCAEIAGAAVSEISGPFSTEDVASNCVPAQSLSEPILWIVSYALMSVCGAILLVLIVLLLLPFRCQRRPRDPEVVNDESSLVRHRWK

Chain of human BACE1 (P56817 46-501): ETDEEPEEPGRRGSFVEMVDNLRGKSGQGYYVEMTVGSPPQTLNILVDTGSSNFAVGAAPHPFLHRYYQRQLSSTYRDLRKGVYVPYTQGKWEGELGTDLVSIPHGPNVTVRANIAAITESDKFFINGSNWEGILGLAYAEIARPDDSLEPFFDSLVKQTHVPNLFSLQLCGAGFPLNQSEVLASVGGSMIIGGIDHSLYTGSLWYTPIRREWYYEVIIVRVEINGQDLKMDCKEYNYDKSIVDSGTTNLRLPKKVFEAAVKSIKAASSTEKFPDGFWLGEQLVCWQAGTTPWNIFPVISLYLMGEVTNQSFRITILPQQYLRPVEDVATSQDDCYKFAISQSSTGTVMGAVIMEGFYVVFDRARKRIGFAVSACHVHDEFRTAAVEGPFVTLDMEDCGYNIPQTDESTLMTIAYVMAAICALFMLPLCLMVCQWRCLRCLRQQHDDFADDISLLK

SMILES | IC50 (human BACE1) [µM] | BACE1/BACE2 selectivity (human BACE2) | melting point [°C]
CN1C(=O)C(c2ccc(SC(F)(F)F)cc2)(c2ccc(F)c(-c3cccnc3F)c2)N=C1N (stereo not drawn) [Example 93] | 0.01 to 0.1 | II (II = 10-100-fold selectivity) | 95
COc1cncc(-c2cccc(C3(c4ccc(OC(F)(F)F)cc4)N=C(N)N(C)C3=O)c2)c1 (stereo not drawn) [Example 51] | 0.01 to 0.1 | III (III = <10-fold selectivity) | 212
CN1C(=O)C(c2ccc(OC(F)(F)F)c(Cl)c2)(c2ccc(F)c(-c3cccnc3)c2)N=C1N (stereo not drawn) [Example 28] | 0.01 to 0.1 | II (II = 10-100-fold selectivity) | 99 to 102
CN1C(=O)C(c2ccc(OC(F)(F)F)c(F)c2)(c2ccc(F)c(-c3cncc(Cl)c3)c2)N=C1N (stereo not drawn) [Example 42] | 0.11 to 1 | II (II = 10-100-fold selectivity) | 201 to 203
CN1C(=O)C(c2cccc(OC(F)(F)F)c2)(c2cccc(-c3cccnc3)c2)N=C1N (stereo not drawn) [Example 25] | 0.01 to 0.1 | II (II = 10-100-fold selectivity) | 198
Cc1cc(C2(c3cccc(-c4cncnc4)c3)N=C(N)N(C)C2=O)ccc1OCC(C)C (stereo not drawn) [Example 122] | 0.01 to 0.1 | II (II = 10-100-fold selectivity) | 103 to 105
COc1cc(C2(c3cccc(-c4cccnc4)c3)N=C(N)N(C)C2=O)cc(OC)c1OC (stereo not drawn) [Example 23] | 0.01 to 0.1 | II (II = 10-100-fold selectivity) | 104 to 107
CCOc1ccc(C2(c3cccc(-c4cncnc4)c3)N=C(N)N(C)C2=O)cc1OCC (stereo not drawn) [Example 44] | 0.01 to 0.1 | II (II = 10-100-fold selectivity) | 100 to 105
Cc1cc(C2(c3cccc(-c4cncnc4)c3)N=C(N)N(C)C2=O)ccc1OCc1ccccc1 (stereo not drawn) [Example 114] | 0.01 to 0.1 | II (II = 10-100-fold selectivity) | 107 to 109
CCOC(=O)COc1ccc(C2(c3cccc(-c4cncnc4)c3)N=C(N)N(C)C2=O)cc1C (stereo not drawn) [Example 119] | 0.11 to 1 | II (II = 10-100-fold selectivity) | 105 to 107
Cc1cc(C2(c3cccc(-c4cncnc4)c3)N=C(N)N(C)C2=O)ccc1OCCCOc1ccccc1 (stereo not drawn) [Example 124] | 0.01 to 0.1 | II (II = 10-100-fold selectivity) | 72 to 74
CN1C(=O)C(c2ccc(OCCF)c(OCCF)c2)(c2ccc(F)c(-c3cccnc3F)c2)N=C1N (stereo not drawn) [Example 104, 2-Amino-5-[3,4-bis-(2-fluoro-ethoxy)-phenyl]-5-[4-fluoro-3-(2-fluoro-pyridin-3-yl)-phenyl]-3-methyl-3,5-dihydro-imidazol-4-one] | 0.01 to 0.1 | II (II = 10-100-fold selectivity) | 85 to 95
Cc1cc(C2(c3cccc(-c4cncnc4)c3)N=C(N)N(C)C2=O)ccc1OCC#N (stereo not drawn) [Example 117] | 0.01 to 0.1 | II (II = 10-100-fold selectivity) | 220 to 222
COc1ccc(C2(c3cccc(-c4ccncc4)c3)N=C(N)N(C)C2=O)cc1C (stereo not drawn) [Example 36, 2-Amino-5-(4-methoxy-3-methylphenyl)-3-methyl-5-(3-pyridin-4-ylphenyl)-3,5-dihydro-4H-imidazol-4-one] | 0.01 to 0.1 | III (III = <10-fold selectivity) | 175
Cc1cc(C2(c3cccc(-c4cncnc4)c3)N=C(N)N(C)C2=O)ccc1OC(C)C (stereo not drawn) [Example 118] | 0.01 to 0.1 | I (I = >100-fold selectivity) | 101 to 103
CN1C(=S)C(c2ccc(OC(F)(F)F)cc2)(c2cccc(-c3cccnc3F)c2)N=C1N (stereo not drawn) [Example 145, 2-Amino-5-[3-(2-fluoro-pyridin-3-yl)-phenyl]-3-methyl-5-(4-trifluoromethoxy-phenyl)-3,5-dihydro-imidazole-4-thione] | 0.01 to 0.1 | II (II = 10-100-fold selectivity) | 89 to 99

Continued, values first:

IC50 (human BACE1) [µM] | BACE1/BACE2 selectivity (human BACE2) | melting point [°C] | SMILES
0.01 to 0.1 | II (II = 10-100-fold selectivity) | 102 to 104 | CCCOc1ccc(C2(c3cccc(-c4cncnc4)c3)N=C(N)N(C)C2=O)cc1C (stereo not drawn) [Example 121]
0.01 to 0.1 | II (II = 10-100-fold selectivity) | 108 to 110 | Cc1cc(C2(c3cccc(-c4cncnc4)c3)N=C(N)N(C)C2=O)ccc1OCCF (stereo not drawn) [Example 116]
0.01 to 0.1 | III (III = <10-fold selectivity) | 93 to 95 | CCOc1ccc(C2(c3ccc(F)c(-c4cccnc4)c3)N=C(N)N(C)C2=O)cc1OCC (stereo not drawn) [Example 99]
0.01 to 0.1 | II (II = 10-100-fold selectivity) | 135 | CN1C(=O)C(c2ccc(OCCF)cc2)(c2ccc(F)c(-c3cccnc3F)c2)N=C1N (stereo not drawn) [Example 108, 2-Amino-5-[4-(2-fluoroethoxy)phenyl]-5-[4-fluoro-3-(2-fluoropyridin-3-yl)phenyl]-3-methyl-3,5-dihydro-4H-imidazol-4-one]
0.01 to 0.1 | II (II = 10-100-fold selectivity) | 123 | CN1C(=O)C(c2ccc(OCCF)cc2)(c2ccc(F)c(-c3cncnc3)c2)N=C1N (stereo not drawn) [Example 109]
0.11 to 1 | I (I = >100-fold selectivity) | 124 to 129 | CN1C(=O)C(c2ccc(OC(F)(F)F)cc2)(c2ccc(Cl)c(-c3cncnc3)c2)N=C1N (stereo not drawn) [Example 49]
0.11 to 1 | II (II = 10-100-fold selectivity) | 241 to 243 | CN1C(=O)C(c2ccc(OC(F)(F)F)cc2)(c2ccc(F)c(-c3cncc(Cl)c3)c2)N=C1N (stereo not drawn) [Example 46]
0.01 to 0.1 | II (II = 10-100-fold selectivity) | 108 to 110 | CN1C(=O)C(c2ccc(OC(F)F)cc2)(c2ccc(F)c(-c3cccnc3F)c2)N=C1N (stereo not drawn) [Example 96]
0.01 to 0.1 | II (II = 10-100-fold selectivity) | 104 to 106 | CN1C(=O)C(c2ccc(OC(F)F)cc2)(c2ccc(F)c(-c3cccnc3)c2)N=C1N (stereo not drawn) [Example 95]
0.11 to 1 | II (II = 10-100-fold selectivity) | 183 | CN1C(=O)C(c2ccc(SC(F)(F)F)cc2)(c2ccc(F)c(-c3cncnc3)c2)N=C1N (stereo not drawn) [Example 94]
0.01 to 0.1 | II (II = 10-100-fold selectivity) | 99 to 100 | CCOc1ccc(C2(c3ccc(F)c(-c4cccnc4)c3)N=C(N)N(C)C2=O)cc1OCC (stereo not drawn) [Example 27]
0.01 to 0.1 | II (II = 10-100-fold selectivity) | 134 | CN1C(=O)C(c2ccc(OC(F)(F)F)cc2)(c2ccc(F)c(-c3cccnc3)c2)N=C1N (stereo not drawn) [Example 50]
0.01 to 0.1 | I (I = >100-fold selectivity) | 95 to 98 | CCOc1ccc(C2(c3ccc(F)c(-c4cncnc4)c3)N=C(N)N(C)C2=O)cc1OCC (stereo not drawn) [Example 86]
0.01 to 0.1 | I (I = >100-fold selectivity) | 108 to 110 | Cc1cc(C2(c3ccc(F)c(-c4cncnc4)c3)N=C(N)N(C)C2=O)ccc1OCCF (stereo not drawn) [Example 113]
0.01 to 0.1 | II (II = 10-100-fold selectivity) | 168 to 170 | Cc1cc(C2(c3cccc(-c4cncnc4)c3)N=C(N)N(C)C2=O)ccc1O (stereo not drawn) [Example 115]
0.11 to 1 | III (III = <10-fold selectivity) | 100 | CN1C(=O)C(c2ccc(OCCF)cc2)(c2cccc(-c3ccc(F)nc3)c2)N=C1N (stereo not drawn) [Example 111]
0.01 to 0.1 | I (I = >100-fold selectivity) | 106 to 108 | CCOc1ccc(C2(c3cccc(-c4cncnc4)c3)N=C(N)N(C)C2=O)cc1C (stereo not drawn) [Example 120]
0.11 to 1 | II (II = 10-100-fold selectivity) | 216 to 218 | CN1C(=O)C(c2ccc(OC(F)(F)F)cc2)(c2ccc(F)c(-c3cncc(F)c3)c2)N=C1N (stereo not drawn) [Example 47]
0.01 to 0.1 | II (II = 10-100-fold selectivity) | 103 to 105 | CN1C(=O)C(c2ccc(OC(F)F)cc2)(c2ccc(F)c(-c3cncnc3)c2)N=C1N (stereo not drawn) [Example 97]
0.01 to 0.1 | II (II = 10-100-fold selectivity) | 105 to 106 | Cc1cc(C2(c3ccc(F)c(-c4cccnc4F)c3)N=C(N)N(C)C2=O)ccc1OCCF (stereo not drawn) [Example 112]
0.01 to 0.1 | I (I = >100-fold selectivity) | 115 | COc1ccc(C2(c3ccc(F)c(-c4cncnc4)c3)N=C(N)N(C)C2=O)cc1C(F)(F)F (stereo not drawn) [Example 56]
